{"source": "patent US20220305012A1", "about": "“L[…] TREATING SLEEP ISSUES” (EISAI R&D MANAGEMENT CO., LTD., priority 2019, published 2022)", "key": {"[1]": {"system": "Subjects Having Insomnia Disorder", "test": "Example 2: latency to persistent sleep (LPS), polysomnography", "type": "in vivo, human", "conditions": "6.25 mg", "description": "As used herein, the term “latency to persistent sleep”, abbreviated as “LPS.” means the minutes from lights off to the first epoch of 20 consecutive epochs (10 minutes) of non-wakefulness.\n(§1) In some embodiments, a sleep parameter is determined objectively using polysomnography. Polysomnography is the monitoring of multiple electrophysiological parameters during sleep and generally includes measurement of EEG activity, electro-oculographic activity and electromyographic activity, as well as other measurements.\nLPS—latency to persistent sleep: minutes from lights off to the first epoch of 20 consecutive epochs of non-wakefulness.\n(§2) The treatment period lasted for 31 days. Subjects were randomized in a double-blind manner and received placebo, a tablet containing 5 mg of lemborexant, a tablet containing 10 mg of lemborexant, or a tablet containing 6.25 mg of zolpidem ER.\n(§3) Within 5 minutes of the subject's mean habitual bedtime, study drug was administered and an overnight polysomnogram recording was initiated. At completion of the recording the following morning (Day 2), postural stability and cognitive performance were assessed. On the Day 2 evening, subjects returned to the clinic and a blood sample was collected before administering study drug, and then study drug was administered within 5 minutes of the subject's mean habitual bedtime. Again, a polysomnogram recording was initiated. The next morning (Day 3), postural stability and cognitive performance were assessed. A blood sample was also collected.\n(§4) On Day 29, subjects returned to the clinic. Study drug was administered within 5 minutes of the subject's mean habitual bedtime and a polysomnogram recording was conducted. On the following morning (Day 30), postural stability and cognitive performance were assessed. After 1.5 hours of waketime, subjects rated their morning sleepiness level.\n(§5) On the evening of Day 30, subjects returned to the clinic. A pre-dose blood sample was collected and study drug was again administered within 5 minutes of the subject's mean habitual bedtime. A polysomnogram recording was initiated. The following morning (Day 31), postural stability and cognitive performance were assessed and a blood sample was obtained. The ISI, FSS, EQ-5D-3L and PGI-Insomnia were administered. Blood and urine samples were collected for routine safety assessment. An electrocardiogram was performed, and vital signs and weight were assessed. The eC-SSRS was then administered to the subject. At 1.5 hours after waketime, subjects rated their morning sleepiness level.\nThe primary endpoint was to determine the change from baseline for mean latency to persistent sleep on days 29 and 30 of 5 mg or 10 mg lemborexant compared to placebo."}, "[2]": {"system": "Subjects Having Insomnia Disorder", "test": "Example 2: sleep efficiency (SE), polysomnography", "type": "in vivo, human", "conditions": "Zolpidem ER 6.25 mg", "description": "as §1\nSE—sleep efficiency: proportion of time spent asleep per time in bed, calculated as TST/interval from lights off until lights on.\nas §2, §3, §4, §5\nOne key secondary endpoint was to determine the change from baseline for mean sleep efficiency on Days 29 and 30 after administration of 5 mg or 10 mg of lemborexant, compared to placebo."}, "[3]": {"system": "Subjects Having Insomnia Disorder", "test": "Example 2: total sleep time (TST), polysomnography", "type": "in vivo, human", "conditions": "Zolpidem ER 6.25 mg", "description": "as §1\nTST—total sleep time: minutes of sleep from sleep onset until terminal awakening.\nas §2, §3, §4, §5"}, "[4]": {"system": "Subjects Having Insomnia Disorder", "test": "Example 2: Insomnia Severity Index Daytime Functioning (Items 4-7)", "type": "in vivo, human", "conditions": "Day 31; Zolpidem ER 6.25 mg", "description": "As used herein, the term “Insomnia Severity Index”, abbreviated as “ISI”, is an index calculated using a 7-item, self-report questionnaire assessing the nature, severity, and impact of insomnia (see Bastien, C. H., et al. “Validation of the Insomnia Severity Index as an outcome measure for insomnia research.” Sleep Med. 2001; 2(4): 297-307). The questionnaire evaluates: (1) severity of sleep onset; (2) sleep maintenance; (3) early morning awakening problems; (4) sleep dissatisfaction; (5) interference caused by sleep difficulties with daytime functioning; (6) noticeability of sleep problems by others; and (7) distress caused by the sleep difficulties. A 5-point scale is used to rate each item (0=no problem to 4=very severe problem) yielding a total score from 0 to 28. Total ISI score (items (1)-(7)) and daytime functioning (items (4)-(7)) are analyzed separately.\nOn day 1 of the baseline period, subjects were admitted to the clinic and ISI, FSS, and EQ-5D-3L were administered. Blood and urine samples were collected for routine safety assessments, an ECG was performed, and vital signs and weight were assessed. The eC-SSRS was administered. Subjects who completed the baseline period and continued to meet the eligibility criteria were randomized and began the randomization phase.\nas §5"}, "[5]": {"system": "Subjects Having Insomnia Disorder", "test": "Example 2: auditory awakening threshold", "conditions": "Zolpidem 6.25 mg"}}}
{"smiles": "Cc1ccc(-c2nc3ccc(C)cn3c2CC(=O)N(C)C)cc1", "note": "[Zolpidem ER, zolpidem, reference compound]", "values": [{"measurement": "LPS LSM treatment ratio: Active/Placebo", "setting": "[1]; Days 1/2", "value": 0.972}, {"measurement": "LPS, Mean", "setting": "[1]; Days 1/2", "value": 31.87, "unit": "min"}, {"measurement": "LPS, Median", "setting": "[1]; Days 1/2", "value": 27.00, "unit": "min"}, {"measurement": "LPS LSM treatment ratio: Active/Placebo", "setting": "[1]; Days 29/30", "value": 1.218}, {"measurement": "LPS, Mean", "setting": "[1]; Days 29/30", "value": 37.11, "unit": "min"}, {"measurement": "LPS, Median", "setting": "[1]; Days 29/30", "value": 28.50, "unit": "min"}, {"measurement": "LPS, Mean", "setting": "[1]; Study Baseline", "value": 44.52, "unit": "min"}, {"measurement": "LPS, Median", "setting": "[1]; Study Baseline", "value": 31.50, "unit": "min"}, {"measurement": "LPS Change from Study Baseline, Mean", "setting": "[1]; at Days 1/2", "value": -12.56, "unit": "min"}, {"measurement": "LPS Change from Study Baseline, Median", "setting": "[1]; at Days 1/2", "value": -5.63, "unit": "min"}, {"measurement": "LPS Change from Study Baseline, Mean", "setting": "[1]; at Days 29/30", "value": -7.51, "unit": "min"}, {"measurement": "LPS Change from Study Baseline, Median", "setting": "[1]; at Days 29/30", "value": -2.88, "unit": "min"}, {"measurement": "Sleep Efficiency, Change from Study Baseline, Mean (SD)", "setting": "[2]; Days 1/2", "value": "11.70 (9.725)"}, {"measurement": "Sleep Efficiency, Change from Study Baseline, Median", "setting": "[2]; Days 1/2", "value": 10.83}, {"measurement": "Sleep Efficiency, Mean (SD)", "setting": "[2]; Days 1/2", "value": "79.85 (8.461)"}, {"measurement": "Sleep Efficiency, Median", "setting": "[2]; Days 1/2", "value": 80.73}, {"measurement": "Sleep Efficiency, Change from Study Baseline, Mean (SD)", "setting": "[2]; Days 29/30", "value": "9.06 (11.230)"}, {"measurement": "Sleep Efficiency, Change from Study Baseline, Median", "setting": "[2]; Days 29/30", "value": 8.39}, {"measurement": "Sleep Efficiency, Mean (SD)", "setting": "[2]; Days 29/30", "value": "77.17 (10.185)"}, {"measurement": "Sleep Efficiency, Median", "setting": "[2]; Days 29/30", "value": 78.70}, {"measurement": "Total Sleep Time, Change from Study Baseline, Mean (SD)", "setting": "[3]; Days 1/2", "value": "55.31 (48.138)"}, {"measurement": "Total Sleep Time, Change from Study Baseline, Median", "setting": "[3]; Days 1/2", "value": 52.00}, {"measurement": "Total Sleep Time, Mean (SD)", "setting": "[3]; Days 1/2", "value": "382.42 (41.528)"}, {"measurement": "Total Sleep Time, Median", "setting": "[3]; Days 1/2", "value": 387.25}, {"measurement": "Total Sleep Time, Change from Study Baseline, Mean (SD)", "setting": "[3]; Days 29/30", "value": "43.34 (54.012)"}, {"measurement": "Total Sleep Time, Change from Study Baseline, Median", "setting": "[3]; Days 29/30", "value": 39.63}, {"measurement": "Total Sleep Time, Mean (SD)", "setting": "[3]; Days 29/30", "value": "370.25 (48.855)"}, {"measurement": "Total Sleep Time, Median", "setting": "[3]; Days 29/30", "value": 377.75}, {"measurement": "Insomnia Severity Daytime Functioning (Items 4-7), Change from Study Baseline, Mean (SD)", "setting": "[4]", "value": "−5.24 (3.764)"}, {"measurement": "Insomnia Severity Daytime Functioning (Items 4-7), Change from Study Baseline, Median", "setting": "[4]", "value": "−5.00"}, {"measurement": "Insomnia Severity Daytime Functioning (Items 4-7), Mean (SD)", "setting": "[4]", "value": "5.87 (3.417)"}, {"measurement": "Insomnia Severity Daytime Functioning (Items 4-7), Median", "setting": "[4]", "value": 6.00}, {"measurement": "Auditory Awakening Threshold, LSM - Difference vs. Placebo", "setting": "[5]", "value": 7.2}, {"measurement": "Auditory Awakening Threshold, Mean (SD)", "setting": "[5]", "value": 58.4}, {"measurement": "Auditory Awakening Threshold, Median", "setting": "[5]", "value": 55.0}]}
